Measurements published in PMC12594101, “Biphasic control of the B cell transcriptome by mTORC1 and GSK3” (Cell reports, 2025).

What was measured:
GSK3B = GSK3B (Homo sapiens, UniProt P49841); experiment: in vitro HotSpot kinase assay (Reaction Biology), 10-dose IC50 in triplicate; assay type: biochemical
GSK3A = GSK3A (Homo sapiens, UniProt P49840); experiment: as above; assay type: biochemical
Sequence of GSK3A (P49840 2-483): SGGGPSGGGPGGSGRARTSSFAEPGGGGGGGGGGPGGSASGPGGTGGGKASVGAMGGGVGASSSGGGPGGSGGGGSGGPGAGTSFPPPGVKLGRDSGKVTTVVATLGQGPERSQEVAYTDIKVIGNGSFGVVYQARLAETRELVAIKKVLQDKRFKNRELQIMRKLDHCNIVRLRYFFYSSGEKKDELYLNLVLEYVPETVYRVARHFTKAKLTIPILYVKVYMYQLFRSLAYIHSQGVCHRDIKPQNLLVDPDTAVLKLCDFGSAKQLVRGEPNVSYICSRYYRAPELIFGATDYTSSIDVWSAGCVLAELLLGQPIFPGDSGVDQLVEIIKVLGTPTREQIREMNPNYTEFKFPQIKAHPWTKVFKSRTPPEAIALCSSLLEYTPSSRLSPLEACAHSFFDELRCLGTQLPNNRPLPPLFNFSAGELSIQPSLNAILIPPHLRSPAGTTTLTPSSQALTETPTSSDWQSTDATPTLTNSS

Sequence of GSK3B (P49841 whole entry): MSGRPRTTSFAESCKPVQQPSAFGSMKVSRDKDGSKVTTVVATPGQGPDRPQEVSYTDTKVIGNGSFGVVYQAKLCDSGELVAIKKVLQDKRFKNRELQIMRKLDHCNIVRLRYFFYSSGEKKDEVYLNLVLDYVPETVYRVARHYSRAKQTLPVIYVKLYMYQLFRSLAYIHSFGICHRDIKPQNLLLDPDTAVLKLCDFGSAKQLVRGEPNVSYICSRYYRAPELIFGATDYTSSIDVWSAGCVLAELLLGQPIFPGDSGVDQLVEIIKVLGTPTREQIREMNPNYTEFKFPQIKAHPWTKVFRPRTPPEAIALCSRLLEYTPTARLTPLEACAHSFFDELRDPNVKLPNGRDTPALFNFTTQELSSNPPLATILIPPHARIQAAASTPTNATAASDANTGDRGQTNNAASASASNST

`CCn1cc(C(=O)O)c(=O)c2c(N)c(F)c(NC3CCCCC3)cc21` [AS1842856] showed an IC50 (GSK3B) of 2.8 nM and an IC50 (GSK3A) of 2.8 nM.
